Series [1] concerns the target T1, Human Serotonin 5-HT6R (Homo sapiens, UniProt P50406).
T1 construct: host or cells: 1321N1 (frozen recombinant cells)
Description: 5-HT6R functional assay, antagonistic mode (cAMP induced by 5-CT, 1321N1 cells). It counts as cell-based. The conditions noted are these: antagonistic mode, 5-CT 1000 nM; read-out: 5-HT6 Kb. Here is the method: (§1) The properties of compounds to inhibit cAMP production induced by a 5-HT6R agonist 5-CT (1000 nM) was evaluated. Compounds were tested in triplicate at eight concentrations (10^−11–10^−4 M). The level of cAMP was measured using frozen recombinant 1321N1 cells expressing the Human Serotonin 5-HT6R (PerkinElmer). Total cAMP was measured using the LANCE cAMP Detection Kit (PerkinElmer), according to the manufacturer’s instructions. For quantification of cAMP levels, 2000 cells/well ([…]) were incubated with a mixture of compounds ([…]) for 30 min at room temperature in a 384-well white opaque microtiter plate. After incubation, the reaction was stopped and cells were lysed by the addition of […] of working solution ([…] ULight-anti-cAMP) for 1 h at room temperature. Time-resolved fluorescence resonance energy transfer (TR-FRET) was detected by an Infinite M1000 Pro (Tecan) using instrument settings from the LANCE cAMP Detection Kit manual. […] The agonistic properties of compounds were determined with an analogous procedure, but without stimulation with 5-CT [10, 36].

The target of series [2] is T2, 5-HT2AR (Homo sapiens, UniProt P28223). Description: 5-HT2AR function (no method given).
T2 sequence (P28223 whole entry): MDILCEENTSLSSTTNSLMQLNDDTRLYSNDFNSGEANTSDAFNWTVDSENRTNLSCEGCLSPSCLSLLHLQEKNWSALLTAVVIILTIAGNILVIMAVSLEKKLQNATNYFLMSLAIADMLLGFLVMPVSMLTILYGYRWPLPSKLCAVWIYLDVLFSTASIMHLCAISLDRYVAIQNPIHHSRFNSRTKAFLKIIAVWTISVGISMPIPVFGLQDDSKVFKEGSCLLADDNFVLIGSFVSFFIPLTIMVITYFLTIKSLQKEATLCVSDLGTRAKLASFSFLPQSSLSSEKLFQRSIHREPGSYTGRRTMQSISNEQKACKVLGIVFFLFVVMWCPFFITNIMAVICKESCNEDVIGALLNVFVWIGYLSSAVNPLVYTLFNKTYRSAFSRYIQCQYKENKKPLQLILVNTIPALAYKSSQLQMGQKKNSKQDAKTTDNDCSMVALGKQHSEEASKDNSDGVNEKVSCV
In series [3] the target is T2, 5-HT2AR. Nature of the series: Radioligand binding assay, [3H]-ketanserin displacement. On the set-up: host or cells: CHO-K1; membrane preparation.
In series [4] the target is 5-HT6R (Homo sapiens, UniProt P50406). Nature of the series: Radioligand binding assay, [3H]-LSD displacement.
Chain of 5-HT6R (P50406 whole entry): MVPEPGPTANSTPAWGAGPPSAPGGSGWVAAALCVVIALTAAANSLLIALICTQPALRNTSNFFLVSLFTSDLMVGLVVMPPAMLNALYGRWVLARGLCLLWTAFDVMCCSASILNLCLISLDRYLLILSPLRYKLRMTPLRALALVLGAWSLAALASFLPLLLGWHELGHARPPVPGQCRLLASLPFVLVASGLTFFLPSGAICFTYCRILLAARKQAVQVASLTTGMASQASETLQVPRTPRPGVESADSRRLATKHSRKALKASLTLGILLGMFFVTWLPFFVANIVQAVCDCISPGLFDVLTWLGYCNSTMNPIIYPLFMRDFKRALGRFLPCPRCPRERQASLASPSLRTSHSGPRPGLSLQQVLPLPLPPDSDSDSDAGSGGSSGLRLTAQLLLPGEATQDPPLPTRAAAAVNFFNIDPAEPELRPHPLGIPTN
Series [5] deals with 5-HT7R (Homo sapiens, UniProt P34969). Description: Radioligand binding assay, [3H]-5-CT displacement.
Chain of 5-HT7R (P34969 1-432): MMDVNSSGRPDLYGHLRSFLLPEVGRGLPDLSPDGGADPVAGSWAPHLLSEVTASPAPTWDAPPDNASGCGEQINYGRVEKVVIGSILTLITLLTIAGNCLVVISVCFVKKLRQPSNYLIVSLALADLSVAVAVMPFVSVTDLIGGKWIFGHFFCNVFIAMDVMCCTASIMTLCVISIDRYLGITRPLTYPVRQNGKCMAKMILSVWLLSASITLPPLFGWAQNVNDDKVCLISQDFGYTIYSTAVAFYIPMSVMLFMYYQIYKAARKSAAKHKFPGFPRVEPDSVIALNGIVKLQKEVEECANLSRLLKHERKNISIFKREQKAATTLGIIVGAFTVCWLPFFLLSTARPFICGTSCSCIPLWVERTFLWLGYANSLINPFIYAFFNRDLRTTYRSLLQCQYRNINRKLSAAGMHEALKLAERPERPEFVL
The target in series [6] is T3, 5-HT1AR (Homo sapiens, UniProt P08908).
T3 sequence (P08908 1-422): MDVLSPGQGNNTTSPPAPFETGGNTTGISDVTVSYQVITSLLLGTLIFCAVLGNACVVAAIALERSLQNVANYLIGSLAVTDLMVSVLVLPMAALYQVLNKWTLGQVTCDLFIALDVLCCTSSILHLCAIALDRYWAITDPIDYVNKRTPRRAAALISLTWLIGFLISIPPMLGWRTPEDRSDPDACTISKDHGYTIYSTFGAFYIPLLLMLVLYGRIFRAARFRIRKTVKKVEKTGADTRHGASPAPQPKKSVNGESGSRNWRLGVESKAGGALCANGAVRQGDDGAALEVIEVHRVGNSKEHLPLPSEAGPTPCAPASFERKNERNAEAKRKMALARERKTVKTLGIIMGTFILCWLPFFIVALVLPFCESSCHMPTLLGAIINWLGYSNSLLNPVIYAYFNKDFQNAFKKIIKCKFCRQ
Description: Radioligand binding assay, [3H]-8-OH-DPAT displacement. To be noted: pKi 5-HT1A, Table 1.

Series [7] concerns the target T4, D2R (Homo sapiens, UniProt P14416). Description: Radioligand binding assay, [3H]-raclopride displacement.
The target in series [8] is T1, Human Serotonin 5-HT6R. Description: 5-HT6R functional assay, agonistic mode (cAMP, 1321N1 cells). To be noted: agonistic mode; read-out: 5-HT6 EC50. It counts as cell-based. As to the method:
as §1

The nature of series [9]: Metabolic stability, incubation with mouse liver microsomes. It counts as in vitro ADME. The conditions noted are these: MLMs, 50 µM, 2 h. As to the method: The murine liver microsomes (MLMs) were purchased from Sigma-Aldrich (St. Louis, MO, USA). To determine metabolic pathways, the tested compounds (50 µM) were incubated with 100 mM Tris-HCl buffer at 37 °C with MLMs (1 mg/mL) and NADPH Regeneration System for 2 h. Reactions were quenched with cold, pure methanol and mixtures were centrifuged 14,000 g for 15 min. The supernatants were analyzed using LCMS. The additional MS ion fragmentation of the product and the substrate were performed to determine the most probable structure of the metabolite.
(Liver microsomes are a subcellular fraction often used to study metabolism.)

Series [10] addresses T5, CYP3A4 (Homo sapiens, UniProt P08684).
T5 construct: purchased Promega (Madison, WI, USA)
Nature of the series: CYP3A4 P450-Glo luminescent assay. The format is in vitro ADME. To be noted: compared to ketoconazole; 0.01 to 25 µM. As to the method: The experiments were provided using commercially available luminescent CYP3A4 P450-Glo™ and CYP2D6 P450-Glo™ tests purchased from Promega (Madison, WI, USA). The enzymatic reactions were conducted in polystyrene, flat-bottom Nunc™ MicroWell™ 96-well microplates (Thermo Scientific, Waltham, MA, USA). The assays were carried out according to the procedures provided by the manufacturer, as described previously. Compounds were tested in triplicate at the final concentrations in a range from 0.01 to 25 µM for both isoforms of CYP450. The references of CYP3A4 and CYP2D6 inhibitors (ketoconazole and quinidine, respectively) were tested in a range from 0.001 to 10 µM. Tested compounds were incubated in 100 mM Tris-HCl buffer separately with CYP3A4 and CYP2D6 membranes and the NADPH Regeneration System for 30 min at room temperature in triplicate. The bioluminescent signal was measured after the addition of the Luciferin Detection Reagent by using a microplate reader EnSpire PerkinElmer (Waltham, MA, USA). Both reagents (NADPH Regeneration System and Luciferin Detection Reagent) were purchased from Promega (Madison, WI, USA).

Series [11] concerns HepG2 cell line. Nature of the series: Hepatotoxicity assay, HepG2 viability. The format is cell-based. The conditions noted are these: 1 μM, 72 h. Here is the method:
To estimate the hepatotoxicity of compounds, the hepatoma HepG2 (ATCC® HB-8065TM) cell line was used according to previously described protocols. The CellTiter 96® AQueous Non-Radioactive Cell Proliferation Assay was obtained from Promega (Madison, WI, USA). The compounds were tested in quadruplicate at four concentrations (1–100 µM) for 72 h.

The conditions of series [12]: PAMPA. (PAMPA measures passive passage across an artificial lipid membrane.)
The nature of series [13]: Metabolic stability, incubation with mouse liver microsomes. It counts as in vitro ADME. The conditions noted are these: MLMs, prolonged incubation.
Series [14] in a line: in vitro. The conditions noted are these: PAMPA, pH 7.4.
Series [15] concerns the target T4, D2R. Description: D2R functional assay, antagonist mode (cAMP, HEK293 cells). It counts as cell-based. On the set-up: expressed in transfected cells. To be noted: for Kb: antagonistic mode, 100 nM quinpirole, read-out: D2 Kb. Here is the method:
The supernatant was aspirated, and the cell pellet was resuspended in stimulation buffer (1 × HBSS, 5 mM HEPES, 0.5 mM IBMX, 0.1% BSA).
The functional properties of compounds were evaluated using the LANCE Ultra cAMP Detection Kit (PerkinElmer). D2 receptors in HEK293 cells are coupled to Gi subtype and decreased cAMP production. […] Each compound was tested in triplicate at eight concentrations (10^−11–10^−4 M).
For quantification of cAMP levels, cells (5 µL) were incubated with 5 µL mixture of compounds (tested ligand and forskolin with 100 nM quinpirole for antagonist binding mode) for 30 min at room temperature in 384-well white opaque microtiter plate (PerkinElmer). After incubation, the reaction was stopped and cells were lysed by the addition of 10 µL working solution (5 µL Eu-cAMP and 5 µL ULight-anti-cAMP). The assay plate was incubated for 1 h at room temperature. Time-resolved fluorescence resonance energy transfer (TR-FRET) signal was detected by an Infinite M1000 Pro (Tecan) using instrument settings from the LANCE Ultra cAMP Detection Kit manual.

The test system of series [16] is 5-HT6. Further details: method as in Dupuis et al. (2008) [31]. The conditions noted are these: Figure 8; ref Dupuis et al. (2008) [31]; cited from earlier work.
Series [17] deals with D2. Further details: method as in Dupuis et al. (2008) [31]. The conditions noted are these: Figure 8; ref Dupuis et al. (2008) [31]; cited from earlier work.
In series [18] the target is 5-HT6. To be noted: read-out: Ki 5-HT6; Figure 8; ref Dupuis et al. (2008) [31]; cited from earlier work.
The mark [19] stands for this setting: Table 1, read-out: pKi 5-HT2A (converted).

Like-named read-outs stand apart in the source and are kept apart here.

These results are taken from paper PMC8347595, “N-Skatyltryptamines—Dual 5-HT6R/D2R Ligands with Antipsychotic and Procognitive Potential” (Molecules, 2021).

The EC50 is the concentration that produces a half-maximal response. Broadly, the Papp is the rate of passage across a membrane or cell layer, normalised by area and donor concentration.

T1 sequence (P50406 whole entry): as the sequence (P50406 whole entry) above
T4 sequence (P14416 whole entry): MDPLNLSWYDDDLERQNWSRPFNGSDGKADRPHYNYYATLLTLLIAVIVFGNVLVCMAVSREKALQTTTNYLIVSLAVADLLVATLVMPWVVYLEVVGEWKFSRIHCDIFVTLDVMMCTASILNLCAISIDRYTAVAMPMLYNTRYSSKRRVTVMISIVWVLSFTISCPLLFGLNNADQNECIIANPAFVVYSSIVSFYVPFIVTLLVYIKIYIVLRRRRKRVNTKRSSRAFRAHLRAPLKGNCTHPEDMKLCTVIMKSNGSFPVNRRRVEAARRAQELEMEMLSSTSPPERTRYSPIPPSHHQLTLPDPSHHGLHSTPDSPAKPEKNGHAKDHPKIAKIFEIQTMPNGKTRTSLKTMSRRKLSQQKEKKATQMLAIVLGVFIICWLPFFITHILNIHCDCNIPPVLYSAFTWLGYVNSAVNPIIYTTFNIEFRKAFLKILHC
T5 sequence (P08684 whole entry): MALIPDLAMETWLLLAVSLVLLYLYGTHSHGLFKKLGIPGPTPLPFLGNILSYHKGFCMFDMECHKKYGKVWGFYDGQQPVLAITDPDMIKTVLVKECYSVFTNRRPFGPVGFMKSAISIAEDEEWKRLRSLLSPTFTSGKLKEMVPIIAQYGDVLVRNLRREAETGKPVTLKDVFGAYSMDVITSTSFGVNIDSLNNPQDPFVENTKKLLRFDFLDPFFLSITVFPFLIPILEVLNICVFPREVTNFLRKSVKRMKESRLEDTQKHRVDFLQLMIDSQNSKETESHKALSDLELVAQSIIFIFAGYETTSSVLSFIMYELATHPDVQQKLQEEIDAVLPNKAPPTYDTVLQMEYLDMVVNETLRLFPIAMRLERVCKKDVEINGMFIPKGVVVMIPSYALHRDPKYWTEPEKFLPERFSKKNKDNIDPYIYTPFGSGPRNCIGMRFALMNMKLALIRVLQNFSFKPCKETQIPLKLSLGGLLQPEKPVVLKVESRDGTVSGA

For `c1ccc2c(CCNCc3c[nH]c4ccccc34)c[nH]c2c1` [Compound 1, [2-(1H-indol-3-yl)ethyl][(1H-indol-3-yl)methyl]amine], in series [1], the Kb came to 151 nM. Moreover, the “5-HT2AR function in words” value in series [2] was 5-HT2AR partial agonist. In addition, the Ki in series [3] (Ki 5-HT2A) is 20 nM; in [3] (pKi 5-HT2A, Table 1), 20 nM; in series [4] (Ki 5-HT6, Figure 8) it was 172 nM; in [4] (pKi 5-HT6, Table 1) it was 174 nM; in [5], 28800 nM; in [6] it was 1510 nM. For the same molecule, the “pKi D2” value in series [7] (Table 1) is 7.22.
With `Clc1ccc2c(CCNCc3c[nH]c4ccccc34)c[nH]c2c1` [Compound 5], the EC50 was determined as 157 nM in [8] and 104 nM in [15] (read-out: EC50 (D2 receptor, antagonistic function)). Also, the values for the Kb in series [1] and in [15] were 136 nM and 104 nM, respectively. Further, the “Metabolic Pathway, metabolite M1” value in [9] was “hydroxylation”. Moreover, the “effect on CYP3A4 activity” value in series [10] is “inducer of CYP3A4”. Further, the HepG2 cell viability in series [11] is ~ 80 % of the control. Besides, the “effect on HepG2 proliferation in words” value in series [11] was “slight antiproliferative effect”. For the same molecule, the permeability in words entry in [12] is on record as “medium permeability coefficients”. For the same molecule, in series [13], the “number of hydroxylated metabolites” value is “only one hydroxylated metabolite”. The Papp at 5 h, 200 µM in [14] stood at 7.09 ± 1.24 ×10⁻⁶ cm/s. Moreover, the Ki was 1170 nM in series [3] (setting [19]); 15800 nM in [5]; 3310 nM in series [6]; 155 nM in [7] (Ki D2, Figure 8); 155 nM in series [7] (pKi D2, Table 1).
Regarding `Clc1ccc2c(CNCCc3c[nH]c4ccccc34)c[nH]c2c1` [Compound 14], the Kb in [1] came to 112 nM; in series [15] it was 290 nM. Moreover, the “Metabolic Pathway, metabolite M1” value in series [9] is reported as “hydroxylation hydroxylation”. Further, the “Metabolic Pathway, metabolite M2” value in series [9] is given as “hydroxylation hydroxylation”. The “effect on CYP3A4 activity” value in series [10] was “only slightly inhibited”. Also, the HepG2 cell viability in series [11] is ~ 80 % of the control. In addition, the “effect on HepG2 proliferation in words” value in series [11] is “slight antiproliferative effect”. In series [12], the permeability in words result is reported as “medium permeability coefficients”. Further, the Papp at 5 h, 200 µM in [14] is 8.34 ± 1.33 ×10⁻⁶ cm/s. Moreover, the Ki in series [3] (setting [19]) was 468 nM; in series [4] (Ki 5-HT6, Figure 8), 90 nM; in [4] (pKi 5-HT6, Table 1), 89.1 nM; in series [5], 15800 nM; in [6], 1070 nM; in [7] (Ki D2, Figure 8), 124 nM. In addition, in [7] (pKi D2, Table 1), the Ki is 123 nM.
On to `Clc1cccc2c(CNCCc3c[nH]c4ccccc34)c[nH]c12` [Compound 17], for which the figures for the Kb in series [1] and in [15] were 234 nM and 215 nM, respectively. Further, the “Metabolic Pathway, metabolite M1” value in series [9] is reported as “hydroxylation hydroxylation”. The “Metabolic Pathway, metabolite M2” value in series [9] is given as “hydroxylation hydroxylation”. In series [10], the “effect on CYP3A4 activity” value is “only slightly inhibited”. For the same molecule, the HepG2 cell viability in series [11] is ~ 80 % of the control. The “effect on HepG2 proliferation in words” value in [11] was “slight antiproliferative effect”. Also, in [12], the permeability in words entry is recorded as “medium permeability coefficients”. For the same molecule, in series [14], the apparent permeability (Papp) at 5 h, 200 µM is 8.42 ± 0.27 ×10⁻⁶ cm/s. The Ki was 3890 nM in series [3] (setting [19]); 363 nM in series [4] (pKi 5-HT6, Table 1); 1070 nM in [5]; 282 nM in series [6]; 51 nM in series [7] (Ki D2, Figure 8); 51.3 nM in series [7] (pKi D2, Table 1).
Regarding `O=C1Cc2cc(CCN3CCN(c4nsc5ccccc45)CC3)c(Cl)cc2N1` [Ziprasidone], the Kb in series [16] was 57.5 nM. In addition, the Ki is 0.8 nM in series [17] and 20 nM in series [18].
